In US20240217951A1, “PCSK9 INHIBITORS AND METHODS OF USE THEREOF” (AstraZeneca AB, priority 2022, published 2024):

Legend:
human PCSK9 = molecular target: T1, human PCSK9 (Homo sapiens, UniProt Q8NBP7); experiment: Assay 2 - Biophysical human PCSK9 assay (SPR, Biacore); format: binding; settings: geometric mean; SPR at 30° C; read-out: Assay 2 (PCSK9 BIAcore DBA CR) GMean Kd
T1 construct: biotinylated human PCSK9 (31-692)-Avi-His6; His6 (C)
Method: Assay 2—Biophysical Human PCSK9 Assay
The SPR binding experiments were performed on a Biacore S200 optical biosensor unit at 30° C. A Series S Sensor Chip SA that is designed to bind biotinylated molecules for interaction analysis in Biacore systems was equilibrated at room temperature prior to use. The running buffer for protein tethering and subsequent ligand binding experiments was 10 mM HEPES pH 7.4, 150 mM NaCl, 0.05% (v/v) Tween 20 pH 7.4.
For the surface tethering of PCSK9, biotinylated human PCSK9 (31-692)-Avi-His6 at a concentration of 0.5 mg/mL was used. Prior to the surface tethering, the surface was exposed to a solution of 50 mM NaOH, 500 mM NaCl via 3 consecutive injections of this solution with a contact time of 60 s and a flowrate of 10 μL min^−1 to remove non-conjugated streptavidin. The PCSK9 protein was diluted to a concentration of 20 μg/mL using running buffer and injected with a contact time of 180-300 s and a flowrate of 10 μL min^−1 over a single flow channel (typically flow channel 2 or flow channel 4) with the aim to achieve protein capture levels of >5000 response units (RU). Remaining biotin binding sites were blocked via 2 consecutive injections of a 10 μM D-biotin solution in running buffer with a contact time of 60 s and a flowrate of 10 μL min^−1 over all flow-channels. Flow-channels 1 and 3 typically served as a reference surface throughout the subsequent binding experiments.
The binding experiments were all performed at a flow rate of 30 PL min^−1 and by employing the method of single-cycle kinetics. This approach involves the sequential injection of a compound concentration series without regeneration steps. A contact time between 90-150 s was selected, which was followed by a 40 min dissociation phase to allow for a proper estimation of the dissociation rate constant. Test compounds were delivered in DMSO at a concentration of 10 mM and a digital dispenser HP D300 was used to set up the compound concentration series using 6 concentrations. The tested concentrations have been 30, 100, 300, 1000, 3000 and 10000 nM. Prior to injecting any compound, the surfaces were equilibrated by injecting running buffer over them in three separate pulses. The data collection rate was set to 10 Hz.
The raw sensorgrams of the compound injections were first subjected to reference subtraction (subtracting the signal from flow channel 1 and/or 3 from the signal from channels 2 and/or 4 respectively) and then blank subtraction (subtracting the signal from injecting DMSO controls from the reference subtracted data). The resulting double-referenced sensorgrams were then fitted using a 1:1 binding interaction model using the manufactures software package to extract kinetic- and affinity data. Active compounds have been defined by creating a detectable binding signal at the highest compound concentration ([…]) of 3 RUs. Kinetic- and affinity data on active compounds are only provided for those compounds where the binding signal at the highest compound concentration ([…]) is 50% of the theoretical maximum binding signal for a 1:1 binding interaction (Rmax, typically between 15-20 RUs) in order to enable a proper fitting of the data.

[1] = molecular target: T2, potassium ion channel hERG (human Ether-á-go-go-Related Gene) (Homo sapiens, UniProt Q12809); experiment: Assay 5 - hERG assay (SyncroPatch 384PE patch clamp, CHO cells); format: cell-based; settings: geometric mean; CHO cells over-expressing hERG; read-out: Assay 5 (hERG Hu CHO IF EPh CR-Syncro) GMean IC50
T2 construct: expressed in transfected cells; host or cells: Chinese hamster ovary K1 (CHO)
Outline: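 Automated high-throughput patch clamp on CHO-K1 cells overexpressing hERG at room temperature, KF/KCl internal with escin, NMDG-containing external at pH 7.4. Six-point cumulative compound addition, 0.33% DMSO final; wells kept only with seal >30 MΩ, Z′ >0.4 and current >0.2 nA.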

[2] = molecular target: GSK3β (Glycogen synthase kinase-3 beta) (Homo sapiens, UniProt P49841); experiment: Assay 6 - GSK3β assay (ThermoFisher Z-Lyte); format: biochemical; settings: geometric mean; ATP Conc: 10 μM; read-out: Assay 6 (GSK3β FRET-Z-Lyte CR) GMean IC50 (μM) ATP Conc: 10
Outline: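 Z-Lyte fluorescence kinase assay with 0.22-0.92 ng GSK3β and 2 μM Ser/Thr 09 peptide in 50 mM HEPES pH 7.5, 10 mM MgCl2, 1 mM EGTA, 0.01% BRIJ-35. Kinase reaction 60 min at room temperature, then 60 min development. 10-point 3-fold titration from 10 μM in 1% DMSO, fitted to a sigmoidal dose-response curve.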

PCSK9 [3] = molecular target: T3, PCSK9 (Homo sapiens, UniProt Q8NBP7, G670E/V474I); experiment: biochemical
PCSK9 [4] = molecular target: T3, PCSK9; experiment: Assay 3 - PCSK9 LDL-C uptake assay in HepG2 cells; format: cell-based; set-up: TEV cleavage site (C); His6 (C); host or cells: added to HepG2 cells (ATCC #HB-8065); settings: 125 nM PCSK9, pHrodo Red-LDL, read-out: Assay 3 LDL uptake potency
Outline: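 HepG2 cells seeded 24 h, then given compound (half-log series, top 10 μM) plus PCSK9 at 125 nM final for 24 h at 37 °C. pHrodo Red-LDL (6 μg/mL) added; uptake imaged at 4 h and 24 h. Signal normalized between DMSO and 100 nM evolocumab controls, four-parameter logistic fit.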

T1 sequence (Q8NBP7 31-692): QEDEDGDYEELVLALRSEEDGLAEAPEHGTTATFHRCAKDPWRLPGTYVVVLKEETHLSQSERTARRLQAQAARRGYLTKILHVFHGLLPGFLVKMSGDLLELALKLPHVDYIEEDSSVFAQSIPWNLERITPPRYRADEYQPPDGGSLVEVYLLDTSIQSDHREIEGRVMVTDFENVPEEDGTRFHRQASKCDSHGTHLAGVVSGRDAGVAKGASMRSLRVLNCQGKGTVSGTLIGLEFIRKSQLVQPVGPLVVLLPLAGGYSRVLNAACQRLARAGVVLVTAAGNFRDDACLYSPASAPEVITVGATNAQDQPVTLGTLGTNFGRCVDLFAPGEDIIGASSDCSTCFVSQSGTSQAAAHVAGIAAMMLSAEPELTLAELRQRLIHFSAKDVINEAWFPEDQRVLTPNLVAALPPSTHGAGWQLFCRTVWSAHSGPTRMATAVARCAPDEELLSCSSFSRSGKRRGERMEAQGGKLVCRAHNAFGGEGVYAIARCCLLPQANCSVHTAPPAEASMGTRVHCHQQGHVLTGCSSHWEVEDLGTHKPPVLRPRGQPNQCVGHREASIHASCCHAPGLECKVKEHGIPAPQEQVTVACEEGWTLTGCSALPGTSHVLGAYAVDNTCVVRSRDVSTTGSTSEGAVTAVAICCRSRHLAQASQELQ
T2 sequence (Q12809 whole entry): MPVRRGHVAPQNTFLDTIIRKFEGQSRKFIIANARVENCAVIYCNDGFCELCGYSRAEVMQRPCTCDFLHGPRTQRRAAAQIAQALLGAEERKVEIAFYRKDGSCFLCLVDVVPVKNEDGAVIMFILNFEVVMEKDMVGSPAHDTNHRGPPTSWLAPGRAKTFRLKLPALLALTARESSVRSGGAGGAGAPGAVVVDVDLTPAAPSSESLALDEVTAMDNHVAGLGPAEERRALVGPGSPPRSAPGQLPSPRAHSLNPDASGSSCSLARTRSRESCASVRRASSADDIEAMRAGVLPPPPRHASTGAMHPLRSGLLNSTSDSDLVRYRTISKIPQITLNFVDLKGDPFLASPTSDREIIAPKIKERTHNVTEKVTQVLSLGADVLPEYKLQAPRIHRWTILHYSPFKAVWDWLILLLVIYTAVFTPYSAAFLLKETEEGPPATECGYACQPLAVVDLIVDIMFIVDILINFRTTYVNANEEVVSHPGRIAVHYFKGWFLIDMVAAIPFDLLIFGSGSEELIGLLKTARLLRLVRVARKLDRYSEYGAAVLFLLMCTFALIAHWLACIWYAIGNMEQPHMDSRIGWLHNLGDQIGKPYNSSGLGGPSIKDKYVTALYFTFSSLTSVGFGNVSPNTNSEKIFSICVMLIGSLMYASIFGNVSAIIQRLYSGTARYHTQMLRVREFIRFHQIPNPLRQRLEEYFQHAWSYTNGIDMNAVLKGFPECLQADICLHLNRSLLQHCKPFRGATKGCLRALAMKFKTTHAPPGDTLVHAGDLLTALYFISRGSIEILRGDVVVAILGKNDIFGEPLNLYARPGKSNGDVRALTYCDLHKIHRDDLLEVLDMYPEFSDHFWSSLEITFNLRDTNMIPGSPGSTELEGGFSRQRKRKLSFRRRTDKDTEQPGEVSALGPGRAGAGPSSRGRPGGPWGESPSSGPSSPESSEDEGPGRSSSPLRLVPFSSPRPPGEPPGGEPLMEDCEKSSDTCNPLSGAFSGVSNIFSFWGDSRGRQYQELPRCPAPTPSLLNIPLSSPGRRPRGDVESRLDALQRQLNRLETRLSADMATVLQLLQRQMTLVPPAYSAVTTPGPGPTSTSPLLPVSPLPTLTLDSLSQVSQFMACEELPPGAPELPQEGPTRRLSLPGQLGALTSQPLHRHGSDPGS
Sequence of GSK3β (Glycogen synthase kinase-3 beta) (P49841 whole entry): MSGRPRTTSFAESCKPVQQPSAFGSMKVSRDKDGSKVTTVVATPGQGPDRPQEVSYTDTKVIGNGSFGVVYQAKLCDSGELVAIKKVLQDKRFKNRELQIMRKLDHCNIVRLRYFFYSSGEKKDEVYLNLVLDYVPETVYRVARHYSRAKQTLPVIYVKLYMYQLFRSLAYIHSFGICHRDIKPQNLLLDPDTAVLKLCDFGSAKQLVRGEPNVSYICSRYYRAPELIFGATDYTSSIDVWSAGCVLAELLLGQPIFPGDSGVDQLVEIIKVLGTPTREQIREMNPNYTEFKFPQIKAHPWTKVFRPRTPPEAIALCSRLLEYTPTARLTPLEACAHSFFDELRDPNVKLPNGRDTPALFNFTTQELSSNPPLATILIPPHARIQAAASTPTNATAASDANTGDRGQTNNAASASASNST
T3 sequence (Q8NBP7 with tags, fused parts or gaps V474I/G670E): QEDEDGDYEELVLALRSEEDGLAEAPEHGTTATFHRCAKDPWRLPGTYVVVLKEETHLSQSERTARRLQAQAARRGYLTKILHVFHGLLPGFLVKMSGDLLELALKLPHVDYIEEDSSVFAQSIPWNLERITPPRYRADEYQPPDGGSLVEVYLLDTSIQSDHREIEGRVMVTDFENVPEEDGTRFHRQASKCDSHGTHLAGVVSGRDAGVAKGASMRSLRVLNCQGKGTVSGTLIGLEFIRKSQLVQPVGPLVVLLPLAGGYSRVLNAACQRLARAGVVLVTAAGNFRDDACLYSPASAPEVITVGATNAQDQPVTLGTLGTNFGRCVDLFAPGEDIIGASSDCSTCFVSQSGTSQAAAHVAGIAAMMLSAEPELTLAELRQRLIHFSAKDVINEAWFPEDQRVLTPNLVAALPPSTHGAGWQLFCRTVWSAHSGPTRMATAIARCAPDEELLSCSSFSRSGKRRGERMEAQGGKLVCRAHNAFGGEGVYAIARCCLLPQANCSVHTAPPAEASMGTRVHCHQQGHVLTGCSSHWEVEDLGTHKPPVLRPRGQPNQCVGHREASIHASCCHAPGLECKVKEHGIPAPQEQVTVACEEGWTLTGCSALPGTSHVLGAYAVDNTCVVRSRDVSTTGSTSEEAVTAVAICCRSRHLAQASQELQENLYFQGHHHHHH

SMILES | Kd (human PCSK9) [nM] | IC50 [1] [nM] | IC50 [2] [µM] | IC50 (PCSK9 [3]) [nM] | EC50 (PCSK9 [4]) [nM]
O=c1ccccn1-c1ccc(N[C@H]2CC[C@H](Nc3cnc(Cl)cn3)C2)nc1 [Example 3, 6′-(((1S,3S)-3-((5-Chloropyrazin-2-yl)amino)cyclopentyl)amino)-2H-[1,3′-bipyridin]-2-one] | 39 | 24600 | > 10 | 40 | 
COc1cnc(N[C@H]2CC[C@H](Nc3ccc(-n4ccccc4=O)cn3)C2)cn1 [Example 140, 6′-(((1S,3S)-3-((5-Methoxypyrazin-2-yl)amino)cyclopentyl)amino)-2H-[1,3′-bipyridin]-2-one] | 81 | > 40000 |  | 309 | 
Cc1cnc(N[C@H]2CC[C@H](Nc3ccc(-n4ccccc4=O)cn3)C2)cn1 [Example 4, 6′-(((1S,3S)-3-((5-Methylpyrazin-2-yl)amino)cyclopentyl)amino)-2H-[1,3′-bipyridin]-2-one] | 81 | > 40000 | > 10 | 104 | 
Cc1nc(N[C@H]2CC[C@H](Nc3ccc(-n4ccccc4=O)cn3)C2)cnc1Cl [Example 102, 6′-(((1S,3S)-3-((5-Chloro-6-methylpyrazin-2-yl)amino)cyclopentyl)amino)-2H-[1,3′-bipyridin]-2-one] | 122 | 17700 | > 10 | 85 | 
O=c1ccccn1-c1ccc(N[C@H]2CC[C@H](Nc3cnc4ccc(Cl)cc4n3)C2)nc1 [Example 139, 6′-(((1S,3S)-3-((7-Chloroquinoxalin-2-yl)amino)cyclopentyl)amino)-2H-[1,3′-bipyridin]-2-one] | 460 | 4600 | 0.292 | 235 | 
Cc1cnc(N[C@H]2CC[C@H](Nc3ccc(-n4nccc(C#N)c4=O)cn3)C2)cn1 [Example 278, 2-(6-(((1S,3S)-3-((5-Methylpyrazin-2-yl)amino)cyclopentyl)amino)pyridin-3-yl)-3-oxo-2,3-dihydropyridazine-4-carbonitrile] | 12 | > 40100 | > 10 | 13 | 
CN1CCN(c2ccc(=O)n(-c3ccc(N[C@H]4CC[C@H](Nc5cnc(OC(F)F)cn5)C4)nc3)c2)CC1 [Example 81, 6′-(((1S,3S)-3-((5-(Difluoromethoxy)pyrazin-2-yl)amino)cyclopentyl)amino)-5-(4-methylpiperazin-1-yl)-2H-[1,3′-bipyridin]-2-one] | 66 | > 40000 | 0.498 | 202 | 
CN1CC(=O)N(c2ccc(N[C@H]3CC[C@H](Nc4cnc(Cl)cn4)C3)nc2)C1=O [Example 100, 3-(6-(((1S,3S)-3-((5-Chloropyrazin-2-yl)amino)cyclopentyl)amino)pyridin-3-yl)-1-methylimidazolidine-2,4-dione] | 45 | > 40100 | > 10 | 28 | 
N#Cc1cnc(N[C@H]2CC[C@H](Nc3ccc(-n4ccccc4=O)cn3)C2)cn1 [Example 5, 5-(((1S,3S)-3-((2-Oxo-2H-[1,3′-bipyridin]-6′-yl)amino)cyclopentyl)amino)pyrazine-2-carbonitrile] | 412 | 18500 | 0.713 | 499 | 
Cc1nc(N[C@H]2CC[C@H](Nc3ccc(-n4ccccc4=O)cn3)C2)cnc1C#N [Example 1, 3-Methyl-5-(((1S,3S)-3-((2-oxo-2H-[1,3′-bipyridin]-6′-yl)amino)cyclopentyl)amino)pyrazine-2-carbonitrile] | 1700 | > 40100 |  | 2750 | 
N#Cc1cccn(-c2ccc(N[C@H]3CC[C@H](Nc4cnc(Cl)cn4)C3)nc2)c1=O [Example 101, 6′-(((1S,3S)-3-((5-Chloropyrazin-2-yl)amino)cyclopentyl)amino)-2-oxo-2H-[1,3′-bipyridine]-3-carbonitrile] |  | 19400 | > 10 | 5.5 | 600
O=c1c(Cl)cccn1-c1ccc(N[C@H]2CC[C@H](Nc3cnc(C4CC4)cn3)C2)nc1 [Example 108, 3-Chloro-6′-(((1S,3S)-3-((5-Cyclopropylpyrazin-2-yl)amino)cyclopentyl)amino)-2H-[1,3′-bipyridin]-2-one] |  | 12700 | > 10 | 3.4 | 400
O=c1ccc2cccnc2n1-c1ccc(N[C@H]2CC[C@H](Nc3cnc(Cl)cn3)C2)nc1 [Example 34, 1-(6-(((1S,3S)-3-((5-Chloropyrazin-2-yl)amino)cyclopentyl)amino)pyridin-3-yl)-1,8-naphthyridin-2 (1H)-one] |  | 15400 | > 10 | 5.1 | 100
O=c1ccc(-c2nnn[nH]2)cn1-c1ccc(N[C@H]2CC[C@H](Nc3cnc(OC(F)F)cn3)C2)nc1 [Example 178, 6′-(((1S,3S)-3-((5-(Difluoromethoxy)pyrazin-2-yl)amino)cyclopentyl)amino)-5-(1H-tetrazol-5-yl)-2H-[1,3′-bipyridin]-2-one] |  | > 40100 | > 10 | 10 | 100
Cc1cnc(N[C@H]2CC[C@H](Nc3ccc(-n4cccc(OC(F)(F)F)c4=O)cn3)C2)cn1 [Example 148, 6′-(((1S,3S)-3-((5-Methylpyrazin-2-yl)amino)cyclopentyl)amino)-3-(trifluoromethoxy)-2H-[1,3′-bipyridin]-2-one] |  | > 40100 | > 10 | 8 | 200
O=c1ccc2ccccc2n1-c1ccc(N[C@H]2CC[C@H](Nc3cnc(OC(F)F)cn3)C2)nc1 [Example 88, 1-(6-(((1S,3S)-3-((5-(Difluoromethoxy)pyrazin-2-yl)amino)cyclopentyl)amino)pyridin-3-yl)quinolin-2 (1H)-one] |  | 4500 | > 10 | 4.5 | 200
Cc1cnc(N[C@H]2CC[C@H](Nc3ccc(-n4c(=O)ccc5ccccc54)cn3)C2)cn1 [Example 38, 1-(6-(((1S,3S)-3-((5-Methylpyrazin-2-yl)amino)cyclopentyl)amino)pyridin-3-yl)quinolin-2(1H)-one] |  | 25100 | > 10 | 2.2 | 100
CC(=O)c1cnc(N[C@H]2CC[C@H](Nc3ccc(-n4ccccc4=O)cn3)C2)cn1 [Example 6, 6′-(((1S,3S)-3-((5-Acetylpyrazin-2-yl)amino)cyclopentyl)amino)-2H-[1,3′-bipyridin]-2-one] | 863 | > 40100 |  | 1160 | 
